System: HUVEC TNFalpha-induced p65 nuclear translocation, imaging
Assay: inhibitors of TNFa-induced NFkB p65 translocation, SAR follow-up, imaging, HUVEC (AID 1023)

COc1cc2ccc(C)nc2c2c1-c1cc(C)ccc1S(=O)(=O)N2
IC50: 0.886 µM

Cc1ccc2cccc(NS(=O)(=O)c3ccc(Cl)s3)c2n1
IC50: 0.986 µM

COc1ccc(S(=O)(=O)Nc2cccc3ccc(C)nc23)c([N+](=O)[O-])c1
IC50: 1.02 µM

COc1ccc2c(c1)-c1ccc3cccnc3c1NS2(=O)=O
IC50: 0.992 µM

Cc1ccc2cccc(NS(=O)(=O)c3cccc([N+](=O)[O-])c3)c2n1
IC50: 0.911 µM

Cc1ccc2c(c1)-c1ccc3cccnc3c1NS2(=O)=O
IC50: 0.562 µM
